Like-named read-outs stand apart in the source and are kept apart here.
Key:
P. aeruginosa biofilm [1] = experiment: Biofilm formation inhibition assay, crystal violet staining; assay type: cell-based, Pseudomonas aeruginosa PAO1; details: 6 h
Experimental: (§1) A Pseudomonas aeruginosa PAO1 inoculum was freshly prepared by inoculating one colony in 10 mL of LB broth and incubating on an orbital shaker at 220 rpm at 37° C. for 16-17 h. The bacterium culture medium was diluted 200-fold to an optical density at 600 nm (OD600) between 0.003-0.005 in M9 minimal medium (containing 48 mM Na2HPO4, 22 mM KH2PO4, 9 mM NaCl, 19 mM NH4Cl, 2 mM MgSO4, 0.1 mM CaCl2), and 20 mM glucose, pH 7.0). This medium was freshly prepared for each experiment.
(§2) For the biofilm inhibition assay, various treatment formulations were added to the 24-well microtiter plates simultaneously as cell culture media placement. The plates were incubated on an orbital shaker at 180 rpm for 6 h incubation at 37° C. For this 6 h biofilm dispersal assay, the plates were incubated on an orbital shaker at 180 rpm for 6 h at 37° C. for biofilm formation. Planktonic bacteria were removed, and 1 mL of fresh M9 minimal medium was added to each well, followed by each treatment addition. The plates were incubated for a further 2.5-3 h before quantifying the biofilm biomass and viabilities of biofilm bacteria.
(§3) The biofilm biomass was analysed by crystal violet (CV) staining. The biofilm on each well surface of the plates was washed once with 1 mL PBS before CV staining. 1 mL of 0.1% CV solution made by a 1:20 dilution of 2% CV aqueous solution in PBS. The CV stained biofilm was washed twice with 1 mL PBS after 20 min incubation. The remaining CV stained biofilm was dissolved in 33% glacial acetic acid and quantified by measuring the absorbance at 550 nm (OD550) using a multimode microplate reader (VICTOR™ X4, Perkin-Elmer). All biofilm assays were performed in two independent experiments.

P. aeruginosa W.T. PAO1 = experiment: Minimum inhibitory concentration (MIC), broth microdilution; assay type: cell-based, Pseudomonas aeruginosa; details: 37° C., 24 h
Experimental: The minimum inhibitory concentration (MIC) of the antimicrobial agents was measured using the broth microdilution technique. A bacterial culture medium with 10^5-10^6 CFU mL^−1 was prepared freshly in Mueller-Hinton (MH) broth and added to a 2-fold serial dilution of antimicrobial agents in 96-well microplates. A cell-only control and a medium-only control were also included in the same microplate. The 96-well microplates were incubated at 37° C. for 24 h. MIC was determined to be the concentration of antimicrobial agents at which the optical density (OD600) was equal to that of a medium-only control using a multimode microplate reader (VICTOR™ X4, Perkin-Elmer). The MIC can also be recorded as the lowest concentration preventing visible bacterial growth after 24 h.

P. aeruginosa biofilm [2] = experiment: Biofilm dispersal assay, crystal violet staining of biofilm biomass; assay type: cell-based, Pseudomonas aeruginosa PAO1
Experimental: as §1
as §2, with “The plates were incubated for a further 2.5-3 h before quantifying the biofilm biomass and viabilities of biofilm bacteria.” left out
The concentrations of each component used for the treatments would be based on their individual effects on biofilm dispersal. […]
as §3
(§4) Biofilm dispersal and bacterial viability assays were conducted as described above using samples set out in Table 2. A graph illustrating the effects of different POEGA-b-PPFPA conjugated formulations on biofilm dispersal are shown in FIG. 13 and on biofilm cell survival are shown in FIG. 14.

[3] = system: P. aeruginosa biofilm bacteria; experiment: Biofilm bacteria viability by CFU counting (drop-plate method); assay type: cell-based, Pseudomonas aeruginosa PAO1; details: FIG. 8; single component alone (AMK 4 or 8 μg/mL, nitroxide 2 mM, phage 10^6 PFU/mL); 2 h treatment
Experimental: The cells in the treated and untreated groups were counted using the drop-plated method to determine the biofilm bacteria viability. Biofilms on the surface of the wells were rinsed with once 1 mL PBS and then were resuspended in 1 mL PBS. The 24-well plates were placed in an ultrasonication bath for 5 min before viable cells count assay. The re-suspended biofilm bacteria were serially diluted 10-fold (10^−1 to 10^−10) in PBS, and 10 μL of each dilution was dropped onto MH agar plates in duplicate, which were incubated at 37° C. overnight. The results are presented as CFU mL^−1. A graph illustrating the effects of different POEGA-b-PVBA conjugated formulations on biofilm cell survival are shown in FIG. 8.
as §4

P. aeruginosa biofilms = experiment: Confocal microscopy of LIVE/DEAD stained biofilms; assay type: cell-based, Pseudomonas aeruginosa; details: nitroxide at 2 mM; LIVE/DEAD staining, FIG. 9
Experimental: For microscopy analysis, P. aeruginosa biofilms were grown in glass-bottom 24-well plates (MatTek Corporation, Ashland MA, USA) for 6 h. After 3 h treatment, biofilms were rinsed twice with PBS before being stained with LIVE/DEAD® BacLight™ bacterial viability kit reagents (L-7007, Molecular Probes) according to the manufacturer's procedure. According to the manufacturer's procedure, 1 to 10 dilution of each of the two components was freshly prepared with PBS. 0.3 mL of the mixed solution was added to each well for 20 min incubation, and the plate was kept in the dark condition. The samples were analysed using confocal laser scanning microscopy (CLSM) with a Nikon A1 confocal microscope. Representative confocal images showing P. aeruginosa biofilms treated with POEGA-b-PVBA conjugated formulations are shown in FIG. 9.

| Compound | effect on inhibiting the formation of biofilms (P. aeruginosa biofilm [1]; AMK at a higher concentration than 4 μg mL^−1) | concentration at which biofilm formation was inhibited (P. aeruginosa biofilm [1]; added with inoculated culture) | MIC (P. aeruginosa W.T. PAO1; Pseudomonas aeruginosa, PAO1, MH broth, read-out: MIC) | reduction of biofilm biomass of pre-established P. aeruginosa biofilm (P. aeruginosa biofilm [2]; AMK alone at 32 μg mL^−1, 8×MIC, 6 h biofilm, 2 h treatment) | effect on biofilm dispersal (P. aeruginosa biofilm [2]; cotreatment study FIG. 7, AMK 4 or 8 μg/ml, phage 10^6 PFU mL^−1, 6 h biofilm, 2 h treatment) | survival of biofilm bacteria [3] | inhibition of biofilm formation (P. aeruginosa biofilm [1]; nitroxide concentration range of 1 to 5 mM) | MIC (P. aeruginosa W.T. PAO1; MH broth) | P. aeruginosa biofilm dispersal (P. aeruginosa biofilm [2]; comparative example, FIG. 13A, printed: nitroxide agent alone at AMK concentration of 8 μg/mL) | reduction of biofilm biomass (P. aeruginosa biofilm [2]; cotreatment study FIG. 7, nitroxide 2 mM, phage 10^6 PFU mL^−1, AMK 4 and 8 μg mL^−1, POEGA-b-PVBA linker, 2 h treatment) | P. aeruginosa biofilm dispersal (P. aeruginosa biofilm [2]; nitroxide alone at 2 mM, 6 h biofilm, 2 h treatment) | P. aeruginosa biofilm dispersal (P. aeruginosa biofilm [2]; nitroxide alone at 5 mM, 6 h biofilm, 2 h treatment) | biofilm biovolume, confocal (P. aeruginosa biofilms) |
| --- | --- | --- | --- | --- | --- | --- | --- | --- | --- | --- | --- | --- | --- |
| NCC[C@H](O)C(=O)N[C@@H]1C[C@H](N)[C@@H](O[C@H]2O[C@H](CN)[C@@H](O)[C@H](O)[C@H]2O)[C@H](O)[C@H]1O[C@H]1O[C@H](CO)[C@@H](O)[C@H](N)[C@H]1O [AMK, amikacin] | strong effect | 4 µg/mL | 4 µg/mL | 10% | did not have an effect | did not affect | – | – | – | – | – | – | – |
| CC1(C)CC(N)CC(C)(C)N1[O] [nitroxide, 4-amino-2,2,6,6-tetramethyl-piperidinyloxyl] | – | – | – | – | – | did not affect | significantly inhibited biofilm formation | 6 mM | about 30% | about 30% | 30% | 70% | greatly reduced biofilm biovolume |
